Values quoted from earlier work as cited in patent US12686665B2, “Bicyclic fused ring derivative or salt thereof and pharmaceutical composition comprising same” (YUHAN CORPORATION, priority 2021, dated 2026).

B1: Simtuzumab: a monoclonal antibody against LOXL2 (antibody, chains of the INN, looked up, V domains shown)
VH: QVQLVQSGAEVKKPGASVKVSCKASGYAFTYYLIEWVRQAPGQGLEWIGVINPGSGGTNYNEKFKGRATITADKSTSTAYMELSSLRSEDTAVYFCARNWMNFDYWGQGTTVTVSS
VL: DIVMTQTPLSLSVTPGQPASISCRSSKSLLHSNGNTYLYWFLQKPGQSPQFLIYRMSNLASGVPDRFSGSGSGTDFTLKISRVEAEDVGVYYCMQHLEYPYTFGGGTKVEIK

Tests used:
[1] = system: liver and cardiacfibrosis; conditions: in vivo; cited from earlier work
[2] = system: NASH patients with advanced liver fibrosis and liver cirrhosis; conditions: after 4 years of the treatment; cited from earlier work

| Molecule | liver and cardiac fibrosis [1] | histological efficacy [2] |
| --- | --- | --- |
| N#CCCN [β-Aminopropionitrile] | improve liver and cardiacfibrosis | – |
| B1 | – | failure to prove histological efficacy |
